Measured values taken from publication doi:10.1101/2020.06.11.145995v1 (biorxiv, 2020).

Experiments:
Assay in all cases: biochemical
Conditions in all cases: read-out: CPT-1-70-1 (1μM) % control
PIP5K1C = PIP5K1C (Homo sapiens, UniProt O60331)
PIP5K2C = PIP5K2C (Homo sapiens, UniProt Q8TBX8)
PIK3CB = PIK3CB (Homo sapiens, UniProt P42338)
PIM2 = PIM2 (Homo sapiens, UniProt Q9P1W9)
PIM1 = PIM1 (Homo sapiens, UniProt P11309)
SGK = SGK (Homo sapiens, UniProt O00141)
Sequence of SGK (O00141 whole entry): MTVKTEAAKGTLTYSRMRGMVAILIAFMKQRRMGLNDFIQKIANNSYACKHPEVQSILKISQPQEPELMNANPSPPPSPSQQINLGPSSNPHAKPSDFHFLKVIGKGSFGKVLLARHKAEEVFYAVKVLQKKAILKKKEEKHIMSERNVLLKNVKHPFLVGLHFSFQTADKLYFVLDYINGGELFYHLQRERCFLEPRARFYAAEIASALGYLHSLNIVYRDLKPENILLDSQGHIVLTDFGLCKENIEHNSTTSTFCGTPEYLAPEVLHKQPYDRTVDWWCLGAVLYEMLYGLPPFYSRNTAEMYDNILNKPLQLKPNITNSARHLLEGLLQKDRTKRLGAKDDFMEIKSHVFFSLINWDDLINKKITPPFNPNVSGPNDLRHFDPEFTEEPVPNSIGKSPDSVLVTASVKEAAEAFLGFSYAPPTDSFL

Sequence of PIM2 (Q9P1W9 whole entry): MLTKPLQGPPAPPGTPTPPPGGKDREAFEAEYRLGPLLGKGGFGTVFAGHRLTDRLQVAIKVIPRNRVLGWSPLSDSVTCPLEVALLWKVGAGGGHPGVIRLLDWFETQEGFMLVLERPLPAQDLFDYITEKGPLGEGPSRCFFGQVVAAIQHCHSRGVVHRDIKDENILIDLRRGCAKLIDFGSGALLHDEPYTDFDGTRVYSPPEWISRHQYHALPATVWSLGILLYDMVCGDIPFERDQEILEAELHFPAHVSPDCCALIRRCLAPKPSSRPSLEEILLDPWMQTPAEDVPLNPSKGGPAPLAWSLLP
Sequence of PIP5K1C (O60331 whole entry): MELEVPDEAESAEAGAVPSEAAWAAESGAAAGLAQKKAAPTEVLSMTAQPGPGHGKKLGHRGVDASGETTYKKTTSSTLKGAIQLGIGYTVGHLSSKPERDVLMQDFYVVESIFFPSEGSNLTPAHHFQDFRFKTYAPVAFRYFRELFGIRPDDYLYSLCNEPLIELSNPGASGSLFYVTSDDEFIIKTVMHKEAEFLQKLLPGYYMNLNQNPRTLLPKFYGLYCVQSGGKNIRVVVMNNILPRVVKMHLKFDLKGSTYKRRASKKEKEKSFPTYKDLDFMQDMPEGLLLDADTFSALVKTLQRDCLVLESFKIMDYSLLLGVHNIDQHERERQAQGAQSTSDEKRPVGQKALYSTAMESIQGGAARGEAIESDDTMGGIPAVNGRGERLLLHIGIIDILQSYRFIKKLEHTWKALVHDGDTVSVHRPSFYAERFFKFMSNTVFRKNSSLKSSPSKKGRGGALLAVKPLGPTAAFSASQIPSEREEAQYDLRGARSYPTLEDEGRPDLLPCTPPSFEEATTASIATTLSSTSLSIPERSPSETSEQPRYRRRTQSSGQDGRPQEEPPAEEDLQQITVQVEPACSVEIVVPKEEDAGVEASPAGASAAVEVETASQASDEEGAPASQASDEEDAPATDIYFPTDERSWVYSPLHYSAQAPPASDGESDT
Sequence of PIP5K2C (Q8TBX8 whole entry): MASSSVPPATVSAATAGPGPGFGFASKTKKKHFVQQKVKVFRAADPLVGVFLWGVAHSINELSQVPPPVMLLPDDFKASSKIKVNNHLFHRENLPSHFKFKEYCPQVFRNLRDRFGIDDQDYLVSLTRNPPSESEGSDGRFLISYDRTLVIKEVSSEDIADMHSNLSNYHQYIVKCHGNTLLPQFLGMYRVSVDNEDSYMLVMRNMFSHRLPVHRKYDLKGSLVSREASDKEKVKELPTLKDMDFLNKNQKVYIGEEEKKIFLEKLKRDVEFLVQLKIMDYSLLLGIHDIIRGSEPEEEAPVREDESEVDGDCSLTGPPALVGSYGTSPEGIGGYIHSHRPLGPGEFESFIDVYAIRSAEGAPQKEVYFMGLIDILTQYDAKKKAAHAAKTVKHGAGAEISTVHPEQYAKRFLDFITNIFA
Sequence of PIM1 (P11309 whole entry): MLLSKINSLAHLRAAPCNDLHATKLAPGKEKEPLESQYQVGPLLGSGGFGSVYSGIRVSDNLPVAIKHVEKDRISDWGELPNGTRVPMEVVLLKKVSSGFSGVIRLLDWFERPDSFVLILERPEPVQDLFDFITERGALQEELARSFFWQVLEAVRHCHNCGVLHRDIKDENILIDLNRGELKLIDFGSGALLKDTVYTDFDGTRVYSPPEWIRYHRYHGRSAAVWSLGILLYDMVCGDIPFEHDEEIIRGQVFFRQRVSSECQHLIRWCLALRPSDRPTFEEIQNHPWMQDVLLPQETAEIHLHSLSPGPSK
Sequence of PIK3CB (P42338 whole entry): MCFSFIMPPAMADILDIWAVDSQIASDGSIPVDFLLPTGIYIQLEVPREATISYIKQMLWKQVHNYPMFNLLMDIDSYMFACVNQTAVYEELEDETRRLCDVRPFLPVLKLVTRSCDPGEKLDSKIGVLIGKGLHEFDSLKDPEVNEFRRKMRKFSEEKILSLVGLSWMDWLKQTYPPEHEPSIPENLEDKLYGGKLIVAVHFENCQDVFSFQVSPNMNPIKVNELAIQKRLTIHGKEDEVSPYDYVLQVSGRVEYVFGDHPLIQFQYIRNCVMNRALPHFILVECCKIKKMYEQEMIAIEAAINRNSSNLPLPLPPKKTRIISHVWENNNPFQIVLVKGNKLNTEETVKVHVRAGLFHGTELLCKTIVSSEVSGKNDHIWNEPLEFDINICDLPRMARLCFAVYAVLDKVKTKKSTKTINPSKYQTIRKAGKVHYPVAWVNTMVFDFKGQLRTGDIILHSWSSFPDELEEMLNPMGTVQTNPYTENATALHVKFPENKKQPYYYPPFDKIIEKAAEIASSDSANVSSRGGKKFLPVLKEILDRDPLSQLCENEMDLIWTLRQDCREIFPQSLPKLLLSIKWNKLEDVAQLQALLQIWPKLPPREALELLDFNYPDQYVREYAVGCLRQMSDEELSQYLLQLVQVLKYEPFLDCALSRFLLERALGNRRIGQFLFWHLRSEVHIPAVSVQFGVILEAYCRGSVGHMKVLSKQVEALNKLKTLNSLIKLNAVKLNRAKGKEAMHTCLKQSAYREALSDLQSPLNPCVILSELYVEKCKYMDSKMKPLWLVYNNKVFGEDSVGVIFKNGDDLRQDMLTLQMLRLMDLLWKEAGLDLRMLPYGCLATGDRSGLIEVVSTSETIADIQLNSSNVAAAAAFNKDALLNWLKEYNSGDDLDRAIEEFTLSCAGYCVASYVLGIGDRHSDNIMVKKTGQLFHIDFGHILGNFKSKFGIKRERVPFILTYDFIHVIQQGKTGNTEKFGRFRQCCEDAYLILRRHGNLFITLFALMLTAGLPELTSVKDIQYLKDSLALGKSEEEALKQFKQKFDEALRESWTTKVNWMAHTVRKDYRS

## CN1CCN(c2ccc(Nc3nc(Oc4ccc(NC(=O)CCl)cc4)c4cc[nH]c4n3)cc2)CC1 [CPT1-70-1]
PIP5K1C
  remaining activity at 1 µM: 57%
PIP5K2C
  remaining activity at 1 µM: 63%
PIK3CB
  remaining activity at 1 µM: 100%
PIM2
  remaining activity at 1 µM: 100%
PIM1
  remaining activity at 1 µM: 100%
SGK
  remaining activity at 1 µM: 26%
